Measured values from patent US20230331719A1, “Pyrazolopyridine Compounds and Methods of Inhibiting IRE1 Using Same” (OPTIKIRA, LLC, priority 2020, published 2023).

Experiments:
[1] = biological target: IRE1α kinase (Homo sapiens (Human), UniProt O75460); experiment: Inhibition of kinase activity of IRE1α (ADP-Glo); format: biochemical; settings: 5 nM IRE1α kinase, 100 µM ATP, 4 hours at room temperature
Method: The kinase reactions were performed in 384 well white ProxiPlate-384 Plus plates (PERKIN Elmer 6008280) using 25 mM MOPS assay buffer with 1 mM dithiothreitol, 25 mM MgCl2, 12.5 mM β-glycerophosphate, 5 mM EGTA, and 50 µg/mL BSA. Test compounds were prepared on the day of assay and dispensed using D300 digital dispenser as a 10-point ½ log dilution series in duplicate, normalized to a final DMSO concentration of 3%. Test compounds were pre-incubated for 30 min at room temperature with 10 nM IRE1α kinase (E31-11G from Signal Chem) in 2.5 µL of assay buffer and the reaction started by addition of 2.5 µL of ATP in assay buffer, to give a final ATP concentration of 100 µm and 5 nM IRE1α kinase. After 4 hours incubation at room temperature the reactions were stopped and the kinase activity determined using the ADP-Glo™ reagent from Promega, according to the manufacturer’s instructions. Luminescence was measured on a luminometer (EnVision, PerkinElmer) and IC50 values calculated by fitting a sigmoidal curve to percent inhibition of control versus Log10 of compound concentration.

[2] = biological target: IRE1α RNase (Homo sapiens (Human), UniProt O75460); experiment: Inhibition of RNase activity of IRE1α; format: biochemical; settings: 0.325 nM enzyme, 100 nM substrate, 20 minutes at room temperature
Method: The RNase reactions were performed in 384 well black ProxiPlate-384 Plus plates (PERKIN Elmer) using 50 mM Tris assay buffer with 0.5 mM MgCl2, 10 mM KCl, 0.03 % Tween, 2 mM DTT and 1% DMSO. Test compounds were prepared on the day of assay and dispensed using D300 digital dispenser as a 10-point ½ log dilution series in duplicate, normalized to a final DMSO concentration of […]. Test compounds were pre-incubated for 30 min at room temperature with IRE1α kinase (E31-11G from Signal Chem) in 2.5 µL of assay buffer. Then 2.5 µl of assay buffer containing substrate (5′ Alexa Fluor 647 - rCrArUrGrUrC rCrGrCrArGrCrGrCrArUrG - Iowa Black RQ quencher 3′) (SEQ ID NO:1) added, giving a final concentration of enzyme of 0.325 nM and of substrate of 100 nM. After 20 minutes incubation at room temperature the reactions were stopped by added 5 µL of 5 M urea, incubated at room temperature for 10 minutes and fluorescence measured on a plate reader (EnVision, PerkinElmer). IC50 values calculated by fitting a sigmoidal curve to percent inhibition of control versus compound concentration.

[3] = system: XBP1; experiment: Cellular XBP1 splicing assay (NanoLuc luciferase reporter); format: cell-based; settings: Homo sapiens; ARPE-19 cells stably expressing XBP1-nano-luciferase; thapsigargin 150 nM, 4 hour incubation
Method: ARPE-19 cells stably expressing XBP1 (a.a. 1-376) with nano-luciferase gene sequence linked so it is in frame when XBP1 is spliced, were cultured in F12 media, 10 % FBS, 0.044% sodium bicarbonate, 150 µg/ml hygromycin B and seeded for assays at 5,000 cells in 384 well plates in culture media without hygromycin B and incubated at 37° C./5% CO2. After overnight incubation test compounds were added to the cell plate in a 10-point ½ log dilution series in duplicate (final DMSO concentration 0.117 %). After further incubation of 30 minutes thapsigargin was added (final concentration 150 nM) and then another 4 hour incubation. A NanoLuc luciferase assay (Promega) was used according to the manufacturer’s instructions to detect the luciferase and luminescence measured on a luminometer (EnVision, PerkinElmer). IC50 values calculated by fitting a sigmoidal curve to percent inhibition of control of compound concentration.

IRE1α RNase, sequence (O75460 468-977): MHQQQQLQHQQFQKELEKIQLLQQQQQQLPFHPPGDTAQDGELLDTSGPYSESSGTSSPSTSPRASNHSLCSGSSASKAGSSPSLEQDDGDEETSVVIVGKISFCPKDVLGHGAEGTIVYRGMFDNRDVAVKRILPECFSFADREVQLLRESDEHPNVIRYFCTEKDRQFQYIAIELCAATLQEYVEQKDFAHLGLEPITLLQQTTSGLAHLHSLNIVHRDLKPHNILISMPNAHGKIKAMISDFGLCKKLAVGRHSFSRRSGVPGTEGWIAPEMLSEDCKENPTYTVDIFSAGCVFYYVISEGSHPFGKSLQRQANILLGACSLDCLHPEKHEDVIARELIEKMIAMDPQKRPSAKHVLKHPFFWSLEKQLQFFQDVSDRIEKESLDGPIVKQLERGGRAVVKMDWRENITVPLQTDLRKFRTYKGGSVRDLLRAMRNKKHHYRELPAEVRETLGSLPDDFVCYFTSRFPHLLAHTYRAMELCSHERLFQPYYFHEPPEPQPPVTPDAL
IRE1α kinase, sequence (O75460 468-977): as above

Row | SMILES | IC50 [1] | IC50 [2] | IC50 [3]
1 | Cc1ccc(F)c(S(=O)(=O)Nc2cc(F)c(-c3nn(C(C)C)c4c3c(N)ncc4[C@H]3CC[C@H](N4CCOCC4)CC3)cc2F)c1 [Compound A12, N-(4-(4-amino-1-isopropyl-7-((1r,4r)-4-morpholinocyclohexyl)-1H-pyrazolo[4,3-c]pyridin-3-yl)-2,5-difluorophenyl)-2-fluoro-5-methylbenzenesulfonamide] | 2.1 nM | 3.4 nM | 7.7 nM
2 | CCOc1ccc(Cl)c(S(=O)(=O)Nc2cc(F)c(-c3nn(C(C)C)c4c3c(N)ncc4[C@H]3CC[C@H](N4CCOCC4)CC3)cc2F)c1 [Compound A17, N-(4-(4-amino-1-isopropyl-7-((1r,4r)-4-morpholinocyclohexyl)-1H-pyrazolo[4,3-c]pyridin-3-yl)-2,5-difluorophenyl)-2-chloro-5-ethoxybenzenesulfonamide] | 2.1 nM | 4.8 nM | 10.6 nM
3 | CC(C)n1nc(-c2cc(F)c(NS(=O)(=O)Cc3ccccc3F)cc2F)c2c(N)ncc([C@H]3CC[C@H](N4CCOCC4)CC3)c21 [Compound A11, N-(4-(4-amino-1-isopropyl-7-((1r,4r)-4-morpholinocyclohexyl)-1H-pyrazolo[4,3-c]pyridin-3-yl)-2,5-difluorophenyl)-1-(2-fluorophenyl)methanesulfonamide] | 2.1 nM | 4.8 nM | 11.6 nM
4 | COC(C)(C)CN[C@H]1CC[C@H](c2cnc(N)c3c(-c4cc(F)c(NS(=O)(=O)c5ccccc5F)cc4F)nn(C(C)C)c32)CC1 [Compound A13, N-(4-(4-amino-1-isopropyl-7-((1r,4r)-4-((2-methoxy-2-methylpropyl)amino)cyclohexyl)-1H-pyrazolo[4,3-c]pyridin-3-yl)-2,5-difluorophenyl)-2-fluorobenzenesulfonamide] | 3.6 nM | 15.5 nM | 17 nM
5 | [2H]C([2H])([2H])Oc1ccc(F)c(S(=O)(=O)Nc2cc(F)c(-c3nn(C(C)C)c4c3c(N)ncc4[C@H]3CC[C@H](N4CCOCC4)CC3)cc2F)c1 [Compound A18, N-(4-(4-amino-1-isopropyl-7-((1r,4r)-4-morpholinocyclohexyl)-1H-pyrazolo[4,3-c]pyridin-3-yl)-2,5-difluorophenyl)-2-fluoro-5-(methoxy-d3)benzenesulfonamide] | 1.9 nM | 6 nM | 6.8 nM
